Source: patent publication US5288709A, “Erythromycin derivatives” (priority 1991, dated 1994)
In brackets after ≈: the same amount, converted by molar mass. Where two headings read alike, the source gives them in different places.

What was measured:
[1] = test system: Enterobacter aerogenes ATCC 13048; test: In-vitro antimicrobial activity primary screen (agar dilution MIC); type: cell-based; details: Klebsiella aerogenes, ATCC13048, 24 h
Procedure, shortened: (§1)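 Growth inhibition was scored on Brain Heart Infusion agar after 20-24 h incubation at 35-37° C; the MIC is the lowest tested concentration yielding no growth, a slight haze or sparsely isolated colonies on the inoculum spot.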

[2] = test system: Enterococcus faecium ATCC 8043; test: as above; type: cell-based
Procedure, shortened: as §1

Escherichia coli DC-2 = test: as above; type: cell-based; details: Escherichia coli, DC2, 24 h, Escherichia coli DC-2; BHI agar, 20-24 h
Procedure, shortened: as §1

Escherichia coli H560 = test: as above; type: cell-based; details: Escherichia coli, H560, 24 h, Escherichia coli H560; BHI agar, 20-24 h
Procedure, shortened: as §1

Escherichia coli JUHL = test: as above; type: cell-based; details: Escherichia coli, 24 h, Escherichia coli JUHL; BHI agar, 20-24 h
Procedure, shortened: as §1

Escherichia coli SS = test: as above; type: cell-based; details: Escherichia coli, 24 h, BHI agar, 20-24 h
Procedure, shortened: as §1

[3] = test system: Micrococcus luteus ATCC 4698; test: as above; type: cell-based; details: 20-24 h
Procedure, shortened: as §1

[4] = test system: Micrococcus luteus ATCC 9341; test: as above; type: cell-based; details: Micrococcus luteus, ATCC9341, 24 h, BHI agar, 20-24 h
Procedure, shortened: as §1

[5] = test system: Providencia stuartii CMX 640; test: as above; type: cell-based; details: Providencia stuartii, CMX640, 24 h
Procedure, shortened: as §1

[6] = test system: Pseudomonas aeruginosa A5007; test: as above; type: cell-based; details: Pseudomonas aeruginosa, A5007, 24 h
Procedure, shortened: as §1

[7] = test system: Pseudomonas aeruginosa BMH10; test: as above; type: cell-based; details: Pseudomonas aeruginosa, BMH10, 24 h, BHI agar, 20-24 h
Procedure, shortened: as §1

[8] = test system: Pseudomonas aeruginosa K799/61; test: as above; type: cell-based; details: Pseudomonas aeruginosa K799/61, BHI agar, 20-24 h
Procedure, shortened: as §1

[9] = test system: Pseudomonas aeruginosa K799/WT; test: as above; type: cell-based; details: Pseudomonas aeruginosa, K799/WT, 24 h
Procedure, shortened: as §1

Pseudomonas cepacia 2961 = test: as above; type: cell-based; details: Burkholderia cepacia, 2961, 24 h, BHI agar, 20-24 h
Procedure, shortened: as §1

[10] = test system: Staphylococcus aureus 45 RAR2; test: as above; type: cell-based; details: Staphylococcus aureus, 45RAR2, 24 h, BHI agar, 20-24 h
Procedure, shortened: as §1

Staphylococcus aureus 45 = test: as above; type: cell-based; details: BHI agar, 20-24 h, read-out: MIC
Procedure, shortened: as §1

[11] = test system: Staphylococcus aureus A5177; test: as above; type: cell-based; details: Staphylococcus aureus, A5177, 24 h, Staphylococcus aureus A5177; BHI agar, 20-24 h
Procedure, shortened: as §1

[12] = test system: Staphylococcus aureus ATCC 6538P; test: as above; type: cell-based; details: Staphylococcus aureus, ATCC6538P, 24 h, BHI agar, 20-24 h
Procedure, shortened: as §1

[13] = test system: Staphylococcus epidermidis 3519; test: as above; type: cell-based; details: BHI agar, 20-24 h, read-out: MIC
Procedure, shortened: as §1

[14] = test system: Streptococcus agalactiae CMX 508; test: as above; type: cell-based; details: 20-24 h
Procedure, shortened: as §1

[15] = test system: Streptococcus bovis A5169; test: as above; type: cell-based; details: Streptococcus equinus, BHI agar, 20-24 h
Procedure, shortened: as §1

[16] = test system: Streptococcus pyrogenes 2548 INDUC; test: as above; type: cell-based; details: BHI agar, 20-24 h
Procedure, shortened: as §1

[17] = test system: Streptococcus pyrogenes EES61; test: as above; type: cell-based; details: BHI agar, 20-24 h, read-out: MIC
Procedure, shortened: as §1

[18] = test system: Streptococcus pyogenes C-203; test: In-vivo acute mouse protection assay; design: species or system Streptococcus pyogenes; female Swiss albino mice; details: dosed 1 and 5 h post-infection, observed 7 days
Method: An acute mouse protection test was conducted on ten mice with each of three concentrations of selected compounds of the invention. Each concentration was a four-fold dilution of the previous concentration. The initial concentration will vary with the microorganism with which the mouse is challenged.
The acute mouse protection test was conducted on female, Swiss albino mice, 18-20 grams in weight. […] To check the potency of the inoculum, a titration of the indicated test organism was carried out in control animals. The titration determines the LD50 for a particular microorganism. The treatment groups of animals were dosed orally, by gavage, or subcutaneously with the test compounds at 1 and 5 hours post-infection and observed for 7 days. The ED50 were calculated using the mortality data collected.

[19] = Pharmacokinetic evaluation in dogs after a 10 mg/kg dose; details: dog, plasma; for half-life: t1/2 (biological half life); for bioavailability: % ABS (percent absorbance), from AUC (absolute bioavailability); for Cmax: Cmax (maximum concentration in blood); for Tmax: Tmax (time to achieve maximum concentration in blood)
Method: Selected compounds of the present invention were formulated as solutions in dilute lactobionic acid at a concentration of 10 or 20 mg/ml. Groups of two or three dogs were given a 10 mg macrolide/kg intravenous bolus or oral dose (by gavage). Plasma samples, obtained at selected time points from 15 minutes to 32 hours after dosing, were assayed using reverse phase HPLC with electrochemical detection (parent drug) and microbiological assay (total microbiological activity). Plasma concentration time curves were subjected to multi exponential curve fitting to determine terminal elimination half life values. Area under the curve (AUC) values, calculated by the trapezoidal method, were used to calculate absolute bioavailability.

Acinetobacter SP CMX 669 = test: In-vitro antimicrobial activity primary screen (agar dilution MIC); type: cell-based; details: Acinetobacter, SPCMX669, 24 h, Acinetobacter SP CMX 669; BHI agar, 20-24 h
Procedure, shortened: as §1

[20] = iv, IV 10 mg/kg, HPLC (parent drug)
[21] = iv, IV 10 mg/kg, microbiological assay
[22] = po, oral 10 mg/kg, HPLC (parent drug)
[23] = po, oral 10 mg/kg, microbiological assay

Structure (SMILES)	MIC (Escherichia coli DC-2) [µg/mL]	MIC (Escherichia coli H560) [µg/mL]	MIC (Escherichia coli JUHL) [µg/mL]	MIC (Escherichia coli SS) [µg/mL]	MIC [4] [µg/mL]	MIC [5] [µg/mL]	MIC [6] [µg/mL]	MIC [7] [µg/mL]	MIC (Pseudomonas cepacia 2961) [µg/mL]	MIC [10] [µg/mL]	MIC (Staphylococcus aureus 45) [µg/mL]	MIC [11] [µg/mL]	MIC [12] [µg/mL]	MIC [13] [µg/mL]	MIC [17] [µg/mL]	ED50 ([18]; C203, 168 h, oral) [mg/kg]	ED50 ([18]; C203, sc, 168 h, subcutaneous) [mg/kg]	half-life [19, 20] [h]	half-life [19, 21] [h]	bioavailability [19, 22] [%]	other results
CC[C@H]1OC(=O)[C@H](C)[C@@H](O[C@H]2C[C@@](C)(OC)[C@H](N)[C@H](C)O2)[C@H](C)[C@@H](O[C@@H]2O[C@H](C)C[C@H](N(C)C)[C@H]2O)[C@](C)(O)C[C@@H](C)[C@@H]2O[C@@]1(C)[C@@H](O)[C@H]2C [Example 13, (4"R,9S,11S) 4"-Amino-9-deoxo-4",12-dideoxy-9,12-epoxyerythromycin A]	50 (≈ 69.7 µM)	12.5 (≈ 17.4 µM)	50 (≈ 69.7 µM)	0.2 (≈ 0.279 µM)	0.01 (≈ 0.0139 µM)	> 100	> 100	100 (≈ 139 µM)	> 100	0.2 (≈ 0.279 µM)	0.2 (≈ 0.279 µM)	0.78 (≈ 1.09 µM)	0.2 (≈ 0.279 µM)	0.2 (≈ 0.279 µM)	< 0.005	51.5	9.3	9.9	18.3	68	MIC [1]: 100 µg/mL (≈ 139 µM); MIC ([2]; ATCC8043, Enterococcus faecium ATCC 8043, BHI agar, 20-24 h, read-out: MIC): 0.05 µg/mL (≈ 0.0697 µM); MIC ([3]; ATCC4698, BHI agar, read-out: MIC): 0.05 µg/mL (≈ 0.0697 µM); MIC ([8]; Pseudomonas aeruginosa, K799/61, 24 h): 1.56 µg/mL (≈ 2.18 µM); MIC [9]: 100 µg/mL (≈ 139 µM); MIC ([14]; CMX508, BHI agar, read-out: MIC): 0.02 µg/mL (≈ 0.0279 µM); MIC ([15]; read-out: MIC): 0.01 µg/mL (≈ 0.0139 µM); MIC ([16]; read-out: MIC): 0.78 µg/mL (≈ 1.09 µM); bioavailability [19, 23]: 58%; Cmax [19, 22]: 1600 ng/mL; Cmax [19, 23]: 1700 ng/mL; Tmax [19, 22]: 0.4 h; Tmax [19, 23]: 0.4 h; half-life [19, 22]: 9.6 h; half-life [19, 23]: 9.1 h
CC[C@H]1OC(=O)[C@H](C)[C@@H](O[C@H]2C[C@@](C)(OC)[C@@H](O)[C@H](C)O2)[C@H](C)[C@@H](O[C@@H]2O[C@H](C)C[C@H](N(C)C)[C@H]2O)[C@](C)(O)C[C@@H](C)[C@@H]2O[C@@]1(C)[C@@H](O)[C@H]2C [Example 4, (9S,11S)-9-Deoxo-12-deoxy-9,12-epoxyerythromycin A]	50 (≈ 69.6 µM)	25 (≈ 34.8 µM)	25 (≈ 34.8 µM)	0.2 (≈ 0.279 µM)	0.05 (≈ 0.0696 µM)	> 100	> 100	50 (≈ 69.6 µM)	> 100	0.39 (≈ 0.543 µM)	0.2 (≈ 0.279 µM)	3.1 (≈ 4.32 µM)	0.2 (≈ 0.279 µM)	0.2 (≈ 0.279 µM)	0.01 (≈ 0.0139 µM)	20	3.3	2.9	2.9	69	MIC (Acinetobacter SP CMX 669): 3.1 µg/mL (≈ 4.32 µM); MIC ([1]; Enterobacter aerogenes ATCC 13048, BHI agar, 20-24 h): 50 µg/mL (≈ 69.6 µM); MIC ([2]; Enterococcus faecium, ATCC8043, 24 h): 0.1 µg/mL (≈ 0.139 µM); MIC ([3]; Micrococcus luteus, ATCC4698, 24 h, BHI agar): 0.1 µg/mL (≈ 0.139 µM); MIC ([8]; read-out: MIC): 0.39 µg/mL (≈ 0.543 µM); MIC ([9]; Pseudomonas aeruginosa K799/WT, BHI agar, 20-24 h): 100 µg/mL (≈ 139 µM); MIC ([14]; Streptococcus agalactiae, CMX508, 24 h, BHI agar): 0.05 µg/mL (≈ 0.0696 µM); MIC ([15]; A5169, 24 h): 0.02 µg/mL (≈ 0.0279 µM); MIC ([16]; Streptococcus, 2548INDUC, 24 h): 3.1 µg/mL (≈ 4.32 µM); bioavailability [19, 23]: 75%; Cmax [19, 22]: 3900 ng/mL; Cmax [19, 23]: 4300 ng/mL; Tmax [19, 22]: 0.25 h; Tmax [19, 23]: 0.4 h; half-life [19, 22]: 2.9 h; half-life [19, 23]: 2.7 h
